According to PMC6588697, “Lugdunin amplifies innate immune responses in the skin in synergy with host- and microbiota-derived factors” (Nature Communications, 2019):
Values joined by “and” are separate entries in the source; they are usually repeats but may differ in a detail not shown here. Equal values may be shown once.

Columns and labels:
[1] = tested on: S. aureus; assay: Adhesion and invasion assay: S. aureus on pretreated PHKs (CFU); assay type: cell-based, Staphylococcus aureus; settings: lugdunin alone; text to Fig 1a
Description: Fig. 1 Lugdunin sensitizes epithelial cells for innate immune defense. a Primary human keratinocytes (PHKs) were pretreated with S. epidermidis conditioned medium (CM), indicated lugdunin concentrations, or the combination of both for 20 h. Subsequently, cells were infected with S. aureus for 1.5 h followed by cell lysis and determination of colony-forming units (CFUs). Shown is one representative experiment of three independent experiments with six technical replicates ± s.e.m. n.s., not significant. b Dorsal skin of mice was pretreated with S. epidermidis CM, 1.5 µg lugdunin alone or in combination with S. epidermidis CM for 24 h. Subsequently, S. aureus CFUs were determined. Horizontal lines represent the mean of each group ± s.e.m. c PHKs were treated with 2 μM lugdunin or with S. epidermidis CM alone or in combination for 20 h and subsequently expression of indicated antimicrobial peptides (AMPs) (respective protein names in brackets) was analyzed and normalized to actin. Shown is one representative experiment of three independent experiments with two technical replicates ± s.e.m. d PHKs were treated with 2 µM lugdunin or 100 ng/mL Pam2Cys for 5 h and subsequently the concentration of indicated cytokines in the supernatant was analyzed by LEGENDplex^TM (BioLegend). […]

[2] = tested on: primary human neutrophils, erythrocytes, HL60; settings: cited from earlier work
Text: Lugdunin represents the founding member of the new class of cyclic thiazolidine-containing peptide antibiotics. […] In our previous work, we have shown that lugdunin treatment led to a strong reduction and even complete eradication of viable S. aure ...

[3] = tested on: HEK293-TLR2 cells; assay: CXCL8 release by HEK-TLR2 cells (LEGENDplex); assay type: cell-based, human
Description: Fig. 2 Induction of chemokine (C-X-C motif) ligand 8/macrophage inflammatory protein-2 (CXCL8/MIP-2) by lugdunin is TLR2/MyD88-dependent. a HEK-control or HEK-TLR2 cells were treated with 2 μM lugdunin for 5 h and subsequently the CXCL8 concentration in the supernatant was analyzed by LEGENDplex^TM (BioLegend). Shown is one representative experiment of three independent experiments with two technical replicates ± s.e.m. b HEK-control or HEK-TLR2 cells were treated with increasing concentrations of lugdunin for 5 h and subsequently expression of CXCL8 was analyzed and normalized to actin. Shown is one representative experiment of three independent experiments with two technical replicates ± s.e.m. c Schematic overview of the mouse experiments: 6–8-week-old female C5BL/6 WT, MyD88-knockout (ko), or 5xTLR-ko mice were epicutaneously treated with 1.5 µg lugdunin or phosphate-buffered saline (PBS) as a control. […] Significant differences to control treatments were analyzed by an unpaired two-tailed t test (*P < 0.05; **P < 0.01; ***P < 0.001). f Representative MIP-2-stained paraffin-embedded mouse skin sections. […]
Supplementary Figure 2: CXCL8 controls and other cytokines in mouse skin 46 a: HEK-control cells or HEK -TLR2 cells were treated with 100 ng/mL Pam2Cys for 5 47 hours and subsequently the CXCL8 concentration in the supernatant was analyzed. […]

Lugdunin
lugdunin concentration at which pretreatment of PHKs significantly reduced the number of adhering S. aureus [1]: ≥ 2 µM | lysis of primary human neutrophils, erythrocytes or HL60 (in words) [2]: did neither cause lysis | CXCL8 concentration in supernatant ([3]; HEK-TLR2 cells, lugdunin 2 µM, 5 h, two technical replicates, Fig 2a): 564.521 and 585.121 | CXCL8 induction level in HEK-TLR2 cells, times lower than Pam2Cys/Pam3Cys-mediated TLR2 activation ([3]; text to Fig 2a and Supp Fig 2): 1000 fold
